Assay results from ChEMBL document CHEMBL3297733, “Discovery and optimization of pyrrolo[1,2-a]pyrazinones leads to novel and selective inhibitors of PIM kinases” (Bioorg Med Chem, 2013).
pIC50: −log10 of the molar value.

Columns and labels:
[1] = target: Proto-oncogene tyrosine-protein kinase receptor Ret (Homo sapiens, UniProt P07949); assay: Inhibition of RET (unknown origin)
[2] = target: Tyrosine-protein kinase ZAP-70 (Homo sapiens, UniProt P43403); assay: Inhibition of ZAP70 (unknown origin)
[3] = target: Protein-tyrosine kinase 6 (Homo sapiens, UniProt Q13882); assay: Inhibition of BRK (unknown origin)
MV4-11 = assay: Cytotoxicity against human MV4-11 cells after 72 hrs by CellTitre-Glo assay; format: functional, cell-based; conditions: MV4-11, 72 h
[4] = target: Protein kinase C beta type (Homo sapiens, UniProt P05771); assay: Inhibition of PKC-beta (unknown origin)
[5] = Cytotoxicity against human Capan1 cells after 72 hrs by CellTitre-Glo assay; format: functional, cell-based; conditions: CAPAN-1, 72 h
[6] = target: Serine/threonine-protein kinase Chk1 (Homo sapiens, UniProt O14757); assay: Inhibition of CHK1 (unknown origin)
[7] = Plasma protein binding in mouse; format: ADME; conditions: read-out: PPB (converted)
[8] = Volume of distribution at steady state in BALB/c mouse at 8.2 mg/kg, iv; format: ADME, organism-based; parameters: dose 8.2 mg/kg, route intravenous; conditions: in vivo, read-out: Vdss
[9] = target: Serine/threonine-protein kinase NIM1 (Homo sapiens, UniProt Q8IY84); assay: Inhibition of NIM1 (unknown origin)
[10] = AUC in BALB/c mouse at 8.2 mg/kg, po; format: ADME, organism-based; parameters: dose 8.2 mg/kg, route oral; conditions: plasma
[11] = target: Serine/threonine-protein kinase pim-1 (Mus musculus) (UniProt P06803); assay: Inhibition of PIM1 in mouse BA/F3 cells assessed as phosphorylation of 4EBP1 at T37/T46 after 24 hrs by Western blotting analysis; format: cell-based; conditions: BaF3
Aurora kinase B = Aurora kinase B (Homo sapiens, UniProt Q96GD4); assay: Inhibition of aurora kinase 2 (unknown origin)
RPMI-8226 = assay: Cytotoxicity against human RPMI8226 cells after 72 hrs by CellTitre-Glo assay; format: functional, cell-based; conditions: RPMI-8226, 72 h
[12] = target: Non-receptor tyrosine-protein kinase TYK2 (Homo sapiens, UniProt P29597); assay: Inhibition of TYK2 (unknown origin)
[13] = Clearance in BALB/c mouse at 8.2 mg/kg, iv; format: ADME, organism-based; parameters: dose 8.2 mg/kg, route intravenous; conditions: in vivo
[14] = Half life in BALB/c mouse at 8.2 mg/kg, iv; format: ADME, organism-based; parameters: dose 8.2 mg/kg, route intravenous; conditions: in vivo
[15] = target: Inhibitor of nuclear factor kappa-B kinase subunit beta (Homo sapiens, UniProt O14920); assay: Inhibition of IKK2 (unknown origin)
[16] = target: Fibroblast growth factor receptor 1 (Homo sapiens, UniProt P11362); assay: Inhibition of FGFR1 (unknown origin)
[17] = Clearance in human hepatocytes; format: ADME, cell-based, Hepatocyte; conditions: read-out: CLH
[18] = target: CDC7/DBF4 (Cell division cycle 7-related protein kinase/Activator of S phase kinase) (Homo sapiens, UniProt O00311); assay: Inhibition of CDC7/DBF4 (unknown origin); format: protein-complex assay
[19] = Plasma protein binding in human; format: ADME, cell-free; conditions: read-out: PPB (converted)
Cytochrome P450 2C9 = Cytochrome P450 2C9 (Homo sapiens, UniProt P11712); assay: Inhibition of CYP2C9 (unknown origin); format: ADME
LP-1 = assay: Cytotoxicity against human LP-1 cells after 72 hrs by CellTitre-Glo assay; format: functional, cell-based; conditions: LP-1, 72 h
[20] = target: Serine/threonine-protein kinase pim-1 (Homo sapiens, UniProt P11309); assay: Inhibition of human PIM1 using ARK-RERTYSFGHHA as substrate incubated for 60 mins prior to substrate addition by topcount scintillation counting analysis in presence of [P33gamma]-ATP
[21] = Inhibition of SULU1 (unknown origin); parameters: species or system Homo sapiens
[22] = target: Serine/threonine-protein kinase pim-3 (Homo sapiens, UniProt Q86V86); assay: Inhibition of human PIM3 using ARK-RERTYSFGHHA as substrate incubated for 60 mins prior to substrate addition by topcount scintillation counting analysis in presence of [P33gamma]-ATP
[23] = Apparent permeability from apical to basolateral side in human Caco2 cells after 120 mins by LC-MS/MS analysis; conditions: Caco-2
[24] = Plasma protein binding in rat; format: ADME, cell-free; conditions: read-out: PPB (converted)
[25] = target: Receptor-type tyrosine-protein kinase FLT3 (Homo sapiens, UniProt P36888); assay: Inhibition of FLT3 (unknown origin)
[26] = Intrinsic clearance in human liver microsomes after 5 mins by LC-MS/MS analysis; format: ADME; conditions: read-out: CLH
Activated CDC42 kinase 1 = Activated CDC42 kinase 1 (Homo sapiens, UniProt Q07912); assay: Inhibition of ACK1 (unknown origin)
[27] = Cytotoxicity against human KMS11 cells after 72 hrs by CellTitre-Glo assay; format: functional, cell-based; conditions: KMS-11, 72 h
[28] = target: Mitotic checkpoint serine/threonine-protein kinase BUB1 (Homo sapiens, UniProt O43683); assay: Inhibition of BUB1 (unknown origin)
[29] = target: Eukaryotic translation initiation factor 2-alpha kinase 3 (Homo sapiens, UniProt Q9NZJ5); assay: Inhibition of PERK (unknown origin)
[30] = target: Serine/threonine-protein kinase pim-1 (Mus musculus) (UniProt P06803); assay: Inhibition of PIM1 in mouse BA/F3 cells assessed as phosphorylation of BAD at S112 after 24 hrs by Western blotting analysis; format: cell-based; conditions: BaF3
[31] = target: Glycogen synthase kinase-3 beta (Homo sapiens, UniProt P49841); assay: Inhibition of GSK3beta (unknown origin)
[32] = target: Vascular endothelial growth factor receptor 2 (Homo sapiens, UniProt P35968); assay: Inhibition of VEGFR2 (unknown origin)
[33] = target: Tyrosine-protein kinase Lyn (Homo sapiens, UniProt P07948); assay: Inhibition of LYN (unknown origin)
[34] = target: Tyrosine-protein kinase Lck (Homo sapiens, UniProt P06239); assay: Inhibition of LCK (unknown origin)
hERG (KCNH2) = hERG (KCNH2) (Homo sapiens, UniProt Q12809); assay: Inhibition of human ERG channel at 10 uM
Cytochrome P450 3A4 = Cytochrome P450 3A4 (Homo sapiens, UniProt P08684); assay: Inhibition of CYP3A4 (unknown origin); format: ADME
[35] = target: RAC-alpha serine/threonine-protein kinase (Homo sapiens, UniProt P31749); assay: Inhibition of AKT1 (unknown origin)
[36] = Intrinsic clearance in dog hepatocytes; format: ADME, cell-based, Canis lupus familiaris, Hepatocyte; conditions: read-out: CLH
Casein kinase II = Casein kinase II (Homo sapiens, UniProt P19784+P67870+P68400); assay: Inhibition of CK2 (unknown origin); format: protein-complex assay
[37] = target: Tyrosine-protein kinase SYK (Homo sapiens, UniProt P43405); assay: Inhibition of Syk (unknown origin)
[38] = target: Vascular endothelial growth factor receptor 3 (Homo sapiens, UniProt P35916); assay: Inhibition of VGFR3 (unknown origin)
[39] = target: Mitogen-activated protein kinase 14 (Homo sapiens, UniProt Q16539); assay: Inhibition of P38alpha (unknown origin)
[40] = Oral bioavailability in BALB/c mouse at 8.2 mg/kg; format: ADME, organism-based; conditions: in vivo
[41] = target: ALK tyrosine kinase receptor (Homo sapiens, UniProt Q9UM73); assay: Inhibition of ALK (unknown origin)
[42] = target: Serine/threonine-protein kinase Nek6 (Homo sapiens, UniProt Q9HC98); assay: Inhibition of NEK6 (unknown origin)

Serine/threonine-protein kinase pim-1 (Mus musculus), sequence (P06803 whole entry, looked up): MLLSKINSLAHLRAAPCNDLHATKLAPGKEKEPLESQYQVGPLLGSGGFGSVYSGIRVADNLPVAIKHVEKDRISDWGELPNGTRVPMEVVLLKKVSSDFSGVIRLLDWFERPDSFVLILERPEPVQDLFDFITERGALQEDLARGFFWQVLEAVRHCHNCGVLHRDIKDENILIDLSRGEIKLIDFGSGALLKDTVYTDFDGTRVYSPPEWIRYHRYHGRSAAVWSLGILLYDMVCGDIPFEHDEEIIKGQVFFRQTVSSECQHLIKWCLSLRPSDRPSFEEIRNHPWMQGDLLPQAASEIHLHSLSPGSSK
Tyrosine-protein kinase Lyn, sequence (P07948 whole entry): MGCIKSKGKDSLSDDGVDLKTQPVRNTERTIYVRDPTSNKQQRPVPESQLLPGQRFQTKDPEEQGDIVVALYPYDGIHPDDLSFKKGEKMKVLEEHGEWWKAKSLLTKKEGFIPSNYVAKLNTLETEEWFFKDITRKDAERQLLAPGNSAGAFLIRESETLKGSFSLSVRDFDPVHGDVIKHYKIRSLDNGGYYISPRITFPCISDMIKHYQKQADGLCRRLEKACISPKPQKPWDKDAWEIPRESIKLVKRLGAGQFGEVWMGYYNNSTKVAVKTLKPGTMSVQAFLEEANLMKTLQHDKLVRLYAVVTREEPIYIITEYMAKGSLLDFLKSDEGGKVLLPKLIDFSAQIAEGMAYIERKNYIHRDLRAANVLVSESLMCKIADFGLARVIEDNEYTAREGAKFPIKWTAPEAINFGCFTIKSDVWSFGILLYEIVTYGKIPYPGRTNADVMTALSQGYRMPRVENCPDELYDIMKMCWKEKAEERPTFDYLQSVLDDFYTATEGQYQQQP
RAC-alpha serine/threonine-protein kinase, sequence (P31749 whole entry): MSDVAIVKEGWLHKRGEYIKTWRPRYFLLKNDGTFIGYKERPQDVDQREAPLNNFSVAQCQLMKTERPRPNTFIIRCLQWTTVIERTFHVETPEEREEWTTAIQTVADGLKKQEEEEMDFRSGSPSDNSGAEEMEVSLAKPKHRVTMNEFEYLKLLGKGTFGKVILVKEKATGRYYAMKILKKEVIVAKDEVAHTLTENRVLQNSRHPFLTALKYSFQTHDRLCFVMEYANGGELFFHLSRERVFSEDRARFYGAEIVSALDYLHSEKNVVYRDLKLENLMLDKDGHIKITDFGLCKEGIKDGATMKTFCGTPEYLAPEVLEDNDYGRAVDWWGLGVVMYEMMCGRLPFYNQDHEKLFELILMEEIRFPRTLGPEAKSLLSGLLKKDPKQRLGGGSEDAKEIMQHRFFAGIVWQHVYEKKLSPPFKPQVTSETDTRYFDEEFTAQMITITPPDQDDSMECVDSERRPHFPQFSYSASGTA
Receptor-type tyrosine-protein kinase FLT3, sequence (P36888 whole entry): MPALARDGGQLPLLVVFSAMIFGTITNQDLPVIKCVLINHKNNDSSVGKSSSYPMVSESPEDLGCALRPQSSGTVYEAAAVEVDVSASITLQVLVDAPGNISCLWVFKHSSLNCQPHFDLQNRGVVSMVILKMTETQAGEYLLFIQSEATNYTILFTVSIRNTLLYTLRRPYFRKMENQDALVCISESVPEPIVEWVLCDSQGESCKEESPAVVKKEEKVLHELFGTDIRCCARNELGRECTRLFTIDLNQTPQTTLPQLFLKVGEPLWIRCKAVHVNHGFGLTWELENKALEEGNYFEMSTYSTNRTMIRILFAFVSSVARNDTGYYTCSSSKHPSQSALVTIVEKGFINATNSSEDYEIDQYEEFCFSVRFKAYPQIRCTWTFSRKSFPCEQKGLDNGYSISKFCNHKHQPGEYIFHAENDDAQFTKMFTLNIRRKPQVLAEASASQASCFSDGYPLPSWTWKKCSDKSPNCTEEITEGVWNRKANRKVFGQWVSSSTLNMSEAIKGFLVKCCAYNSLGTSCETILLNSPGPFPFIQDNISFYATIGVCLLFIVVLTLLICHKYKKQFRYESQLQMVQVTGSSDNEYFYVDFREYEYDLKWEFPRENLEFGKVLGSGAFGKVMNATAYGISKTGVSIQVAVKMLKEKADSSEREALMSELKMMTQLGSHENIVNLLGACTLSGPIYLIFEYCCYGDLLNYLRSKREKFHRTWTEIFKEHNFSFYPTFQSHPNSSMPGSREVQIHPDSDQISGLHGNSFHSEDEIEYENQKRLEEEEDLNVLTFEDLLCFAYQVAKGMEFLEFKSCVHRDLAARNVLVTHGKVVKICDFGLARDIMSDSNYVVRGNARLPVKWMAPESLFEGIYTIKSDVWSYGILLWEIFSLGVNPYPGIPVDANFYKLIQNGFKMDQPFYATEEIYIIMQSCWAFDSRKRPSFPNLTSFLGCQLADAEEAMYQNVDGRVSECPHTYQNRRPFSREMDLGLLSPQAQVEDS
Mitogen-activated protein kinase 14, sequence (Q16539 whole entry): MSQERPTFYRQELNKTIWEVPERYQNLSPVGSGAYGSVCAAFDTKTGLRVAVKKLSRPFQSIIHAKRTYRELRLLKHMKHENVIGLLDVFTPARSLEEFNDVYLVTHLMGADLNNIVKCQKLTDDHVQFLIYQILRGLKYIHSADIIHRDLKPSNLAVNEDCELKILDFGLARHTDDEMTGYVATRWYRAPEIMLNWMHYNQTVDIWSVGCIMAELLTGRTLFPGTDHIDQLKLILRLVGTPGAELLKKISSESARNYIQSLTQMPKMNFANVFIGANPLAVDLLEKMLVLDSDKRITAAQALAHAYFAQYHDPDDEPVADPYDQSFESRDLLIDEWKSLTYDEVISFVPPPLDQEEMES
Protein kinase C beta type, sequence (P05771 whole entry): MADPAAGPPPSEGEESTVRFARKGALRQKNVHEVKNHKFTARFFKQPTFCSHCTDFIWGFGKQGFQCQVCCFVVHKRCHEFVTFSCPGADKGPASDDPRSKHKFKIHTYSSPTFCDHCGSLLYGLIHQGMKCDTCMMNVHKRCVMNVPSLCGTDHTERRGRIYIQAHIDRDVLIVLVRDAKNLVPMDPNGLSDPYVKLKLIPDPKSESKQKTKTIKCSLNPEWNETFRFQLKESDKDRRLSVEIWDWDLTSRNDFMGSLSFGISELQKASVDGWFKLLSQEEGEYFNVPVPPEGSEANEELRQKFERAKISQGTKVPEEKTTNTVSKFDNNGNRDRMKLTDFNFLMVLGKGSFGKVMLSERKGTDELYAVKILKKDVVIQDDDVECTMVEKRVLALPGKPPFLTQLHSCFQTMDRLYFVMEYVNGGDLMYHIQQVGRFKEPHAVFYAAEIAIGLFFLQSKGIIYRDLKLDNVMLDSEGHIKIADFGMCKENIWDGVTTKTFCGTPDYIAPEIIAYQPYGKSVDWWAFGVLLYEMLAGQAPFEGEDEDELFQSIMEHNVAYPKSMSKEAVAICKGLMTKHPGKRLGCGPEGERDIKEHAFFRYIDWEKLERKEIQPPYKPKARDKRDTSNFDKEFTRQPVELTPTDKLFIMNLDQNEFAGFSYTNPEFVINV
Eukaryotic translation initiation factor 2-alpha kinase 3, sequence (Q9NZJ5 whole entry): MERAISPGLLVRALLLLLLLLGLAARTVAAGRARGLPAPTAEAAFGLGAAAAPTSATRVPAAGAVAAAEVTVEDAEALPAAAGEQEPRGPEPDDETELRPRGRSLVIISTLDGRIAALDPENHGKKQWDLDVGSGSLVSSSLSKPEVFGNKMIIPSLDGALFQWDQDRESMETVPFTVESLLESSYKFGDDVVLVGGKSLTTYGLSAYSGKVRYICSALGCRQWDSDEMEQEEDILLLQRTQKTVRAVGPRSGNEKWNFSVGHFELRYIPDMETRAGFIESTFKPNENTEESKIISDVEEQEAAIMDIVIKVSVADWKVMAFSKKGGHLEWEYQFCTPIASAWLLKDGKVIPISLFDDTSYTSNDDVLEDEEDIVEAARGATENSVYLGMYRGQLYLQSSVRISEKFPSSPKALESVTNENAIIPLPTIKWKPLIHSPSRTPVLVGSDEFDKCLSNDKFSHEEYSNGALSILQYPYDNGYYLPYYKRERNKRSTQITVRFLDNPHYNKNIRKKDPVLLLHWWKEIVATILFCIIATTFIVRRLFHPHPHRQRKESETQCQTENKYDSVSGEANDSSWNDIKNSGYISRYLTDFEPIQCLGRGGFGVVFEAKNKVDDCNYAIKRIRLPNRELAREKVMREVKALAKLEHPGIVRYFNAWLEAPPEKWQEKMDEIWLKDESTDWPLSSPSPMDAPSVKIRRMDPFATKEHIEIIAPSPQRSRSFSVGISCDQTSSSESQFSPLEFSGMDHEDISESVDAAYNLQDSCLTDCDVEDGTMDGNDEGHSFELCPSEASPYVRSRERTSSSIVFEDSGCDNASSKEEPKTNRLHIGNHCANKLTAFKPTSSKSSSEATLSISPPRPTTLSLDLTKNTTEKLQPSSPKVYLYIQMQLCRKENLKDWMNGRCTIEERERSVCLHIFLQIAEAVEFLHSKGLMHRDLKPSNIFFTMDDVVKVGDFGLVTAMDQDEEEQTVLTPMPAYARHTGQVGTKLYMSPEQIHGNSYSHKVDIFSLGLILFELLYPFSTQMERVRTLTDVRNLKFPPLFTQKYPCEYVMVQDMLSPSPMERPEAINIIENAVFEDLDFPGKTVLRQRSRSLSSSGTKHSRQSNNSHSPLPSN
Protein-tyrosine kinase 6, sequence (Q13882 whole entry): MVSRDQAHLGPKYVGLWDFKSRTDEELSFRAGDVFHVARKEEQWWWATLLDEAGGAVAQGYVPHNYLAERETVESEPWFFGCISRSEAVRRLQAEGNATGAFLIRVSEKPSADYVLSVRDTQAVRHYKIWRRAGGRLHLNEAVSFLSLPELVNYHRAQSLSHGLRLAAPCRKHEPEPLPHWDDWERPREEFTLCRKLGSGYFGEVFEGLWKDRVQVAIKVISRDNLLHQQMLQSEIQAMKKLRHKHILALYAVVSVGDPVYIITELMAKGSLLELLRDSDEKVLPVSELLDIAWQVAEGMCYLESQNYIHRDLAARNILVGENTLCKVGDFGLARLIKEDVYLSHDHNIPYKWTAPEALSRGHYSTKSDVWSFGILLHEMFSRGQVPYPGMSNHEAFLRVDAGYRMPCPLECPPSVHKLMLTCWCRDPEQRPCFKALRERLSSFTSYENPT

pIC50 [1]: < 5.00
pIC50 [2]: < 5.00
pIC50 [3]: < 5.00
pIC50 [4]: < 5.00
pIC50 [6]: < 5.00
fraction unbound [7]: 0.02
Vd [8]: 11.3 L/kg
pIC50 [9]: < 5.00
AUC [10]: 0.05 µM·h
inhibition [11]: Dose-dependent effect
pIC50 (Aurora kinase B): < 5.00
pIC50 [12]: < 5.00
clearance [13]: 28 mL/min/kg
half-life [14]: 13.6 h
pIC50 [15]: < 5.00
pIC50 [16]: < 5.00
CLint scaled [17]: 5.9 mL/min/kg
pIC50 [18]: < 5.00
fraction unbound [19]: 0.03
pIC50 (Cytochrome P450 2C9): < 5.00
pIC50 [20]: 7.52
pIC50 [21]: < 5.00
pIC50 [22]: 7.92
Papp A→B at 2 h [23]: 8.4 ×10⁻⁶ cm/s
fraction unbound [24]: 0.036
pIC50 [25]: < 5.00
CLint scaled [26]: 5.9 mL/min/kg
pIC50 (Activated CDC42 kinase 1): < 5.00
pIC50 [28]: < 5.00
pIC50 [29]: < 5.00
inhibition [30]: Dose-dependent effect
pIC50 [31]: < 5.00
pIC50 [32]: < 5.00
pIC50 [33]: < 5.00
pIC50 [34]: < 5.00
pIC50 (Cytochrome P450 3A4): < 5.00
pIC50 [35]: < 5.00
CLint scaled [36]: 11 mL/min/kg
pIC50 (Casein kinase II): < 5.00
pIC50 [37]: < 5.00
pIC50 [38]: < 5.00
pIC50 [39]: < 5.00
bioavailability [40]: 0.65%
pIC50 [41]: < 5.00
pIC50 [42]: < 5.00
SMILES: CN1CCN(C[C@@H](NC(=O)C[C@H]2CNC(=O)c3cc(-c4cccc(Cl)c4)cn32)C2CCCCC2)CC1
pIC50 (MV4-11): 5.82
pIC50 [5]: 5.43
pIC50 (RPMI-8226): 5.18
pIC50 (LP-1): 5.71
pIC50 [27]: 5.15
inhibition at 10 µM (hERG (KCNH2)): 16%
